Patent US8921410B2, “Nicotinic acetylcholine receptor sub-type selective amides of diazabicycloalkanes” (Targacept, Inc., priority 2006, dated 2014)
pKi: −log10 of the molar value. Like-named read-outs stand apart in the source and are kept apart here.

Key:
rat α4β2 nAChR subtype = rat α4β2 nAChR subtype (Rattus norvegicus (Rat), UniProt P09483+P12390); assay: Radioligand ([3H]nicotine) binding at α4β2 nAChR, rat cortex membranes
Experimental: Preparation of Membranes from Rat Cortex:
(§1) Rats (female, Sprague-Dawley), weighing 150-250 g, were maintained on a 12 h light/dark cycle and were allowed free access to water and food supplied by PMI Nutrition International, Inc. Animals were anesthetized with 70% CO2, and then decapitated. Brains were removed and placed on an ice-cold platform. […] The homogenate was centrifuged at 18,000×g for 20 min at 4° C. and the resulting pellet was re-suspended in 20 volumes of ice-cold water. After 60 min incubation on ice, a new pellet was collected by centrifugation at 18,000×g for 20 min at 4° C. The final pellet was re-suspended in 10 volumes of buffer and stored at −20° C.
(§2) On the day of the assay, the frozen membranes were thawed and spun at 48,000×g for 20 min. The supernatant was decanted and discarded. The pellet was resuspended in Dulbecco's phosphate buffered saline (PBS, Life Technologies) pH 7.4 and homogenized with the Polytron for 6 seconds. Protein concentrations were determined using a Pierce BCA Protein Assay Kit, with bovine serum albumin as the standard (Pierce Chemical Company, Rockford, Ill.).
(§3) Tissue was rinsed 3 times in PBS, pH 7.4. Scintillation fluid was added to filters containing the washed tissue and allowed to equilibrate.
(§4) Data were expressed as disintegrations per minute (DPMs). Within each assay, each point had 2-3 replicates. The replicates for each point were averaged and plotted against the log of the drug concentration.

human α4β2 nAChR subtype = human α4β2 nAChR subtype (Homo sapiens (Human), UniProt P17787+P43681); assay: Radioligand ([3H]nicotine) binding at α4β2 nAChR, SH-EP1/human α4β2 clonal cell membranes
Sequence of human α4β2 nAChR subtype (P43681 29-627): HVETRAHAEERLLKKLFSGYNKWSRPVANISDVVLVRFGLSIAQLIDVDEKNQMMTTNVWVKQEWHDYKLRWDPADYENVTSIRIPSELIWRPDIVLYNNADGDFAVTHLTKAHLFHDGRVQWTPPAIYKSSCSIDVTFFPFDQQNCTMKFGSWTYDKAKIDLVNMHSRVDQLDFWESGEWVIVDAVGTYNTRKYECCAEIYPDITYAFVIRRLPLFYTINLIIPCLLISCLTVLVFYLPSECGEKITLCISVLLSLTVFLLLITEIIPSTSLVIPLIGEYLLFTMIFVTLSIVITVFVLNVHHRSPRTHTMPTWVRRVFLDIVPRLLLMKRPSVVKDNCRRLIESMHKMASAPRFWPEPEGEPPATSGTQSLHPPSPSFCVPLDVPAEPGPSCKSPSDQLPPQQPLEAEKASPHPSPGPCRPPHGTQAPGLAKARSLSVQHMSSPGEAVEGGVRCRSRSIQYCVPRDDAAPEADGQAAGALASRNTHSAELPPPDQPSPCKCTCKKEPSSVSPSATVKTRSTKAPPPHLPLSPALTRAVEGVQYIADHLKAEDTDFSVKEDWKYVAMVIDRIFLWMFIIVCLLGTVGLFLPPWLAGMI
Sequence of human α4β2 nAChR subtype (P17787 26-502): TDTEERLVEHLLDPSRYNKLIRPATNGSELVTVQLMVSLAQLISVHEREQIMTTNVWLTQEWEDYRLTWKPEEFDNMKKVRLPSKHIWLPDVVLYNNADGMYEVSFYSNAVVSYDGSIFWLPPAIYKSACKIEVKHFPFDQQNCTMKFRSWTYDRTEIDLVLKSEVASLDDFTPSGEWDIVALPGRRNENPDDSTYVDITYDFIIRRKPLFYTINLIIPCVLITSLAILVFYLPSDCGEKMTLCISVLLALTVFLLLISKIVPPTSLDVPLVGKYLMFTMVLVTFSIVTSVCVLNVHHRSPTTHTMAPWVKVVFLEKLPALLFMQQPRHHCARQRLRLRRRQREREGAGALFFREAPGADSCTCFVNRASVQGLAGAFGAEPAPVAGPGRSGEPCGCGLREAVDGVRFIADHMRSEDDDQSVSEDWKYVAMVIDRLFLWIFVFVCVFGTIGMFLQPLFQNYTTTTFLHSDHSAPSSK
Experimental: Preparation of Membranes from SH-EP1/Human α4β2 Clonal Cells:
Cell pellets from 40 150 mm culture dishes were pooled, and homogenized by Polytron (Kinematica GmbH, Switzerland) in 20 milliliters of ice-cold preparative buffer. The homogenate was centrifuged at 48,000 g for 20 minutes at 4° C. The resulting pellet was re-suspended in 20 mL of ice-cold preparative buffer and stored at −20° C.
as §2, §3, §4

α7 nAChR subtype = α7 nAChR subtype (Rattus norvegicus (Rat), UniProt Q05941); assay: Radioligand ([3H]MLA) binding at α7 nAChR, rat hippocampus membranes; details: for pKi: [3H]MLA 5 nM, rat hippocampus membranes
Sequence of α7 nAChR subtype (Q05941 23-502): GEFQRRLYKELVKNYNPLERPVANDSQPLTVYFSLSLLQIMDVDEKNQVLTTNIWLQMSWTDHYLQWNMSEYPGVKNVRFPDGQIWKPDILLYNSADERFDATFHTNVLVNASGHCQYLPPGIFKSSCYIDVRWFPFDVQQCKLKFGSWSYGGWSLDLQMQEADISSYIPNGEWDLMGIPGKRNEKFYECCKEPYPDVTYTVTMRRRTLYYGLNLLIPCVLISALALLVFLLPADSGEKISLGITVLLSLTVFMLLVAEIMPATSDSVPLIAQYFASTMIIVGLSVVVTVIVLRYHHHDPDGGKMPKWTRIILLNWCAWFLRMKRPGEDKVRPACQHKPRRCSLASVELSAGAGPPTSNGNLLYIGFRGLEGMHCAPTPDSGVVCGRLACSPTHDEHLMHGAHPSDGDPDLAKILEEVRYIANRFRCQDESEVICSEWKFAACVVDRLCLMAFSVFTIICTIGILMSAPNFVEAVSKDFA
Experimental: as §1, with “CO2,” for “CO2, and”, “in 10” for “in 20”
The binding of [^3H]MLA was measured using a modification of the methods of Davies et al., Neuropharmacol. […] [^3H]MLA (Specific Activity=25-35 Ci/mmol) was obtained from Tocris. The binding of [^3H]MLA was determined using a 2 h incubation at 21° C. Incubations were conducted in 48-well micro-titre plates and contained about 200 μg of protein per well in a final incubation volume of 300 μL. The incubation buffer was PBS and the final concentration of [^3H]MLA was 5 nM. The binding reaction was terminated by filtration of the protein containing bound ligand onto glass fiber filters (GF/B, Brandel) using a Brandel Tissue Harvester at room temperature. […] Each filter was washed with PBS (3×1 mL) at room temperature. Non-specific binding was determined by inclusion of 50 μM non-radioactive MLA in selected wells.
The inhibition of [^3H]MLA binding by test compounds was determined by including seven different concentrations of the test compound in selected wells. Each concentration was replicated in triplicate. IC50 values were estimated as the concentration of compound that inhibited 50 percent of specific [^3H]MLA binding.

[1] = test system: object recognition in rats; assay: Novel object recognition (NOR) task; format: in vivo, rat; details: oral
Experimental: The novel object recognition (NOR) task was performed in accord with the description of Ennaceur and Delacour Behav. Brain Res. 100: 85-92 (1988).

[2] = [3H]nicotine 5 nM, rat cortex membranes
[3] = [3H]nicotine 5 nM, SH-EP1/human α4β2 membranes, read-out: Human α4β2 Ki
[4] = did not bind sufficiently in HTS at α7 to warrant Ki determination

Sequence of rat α4β2 nAChR subtype (P09483 31-630): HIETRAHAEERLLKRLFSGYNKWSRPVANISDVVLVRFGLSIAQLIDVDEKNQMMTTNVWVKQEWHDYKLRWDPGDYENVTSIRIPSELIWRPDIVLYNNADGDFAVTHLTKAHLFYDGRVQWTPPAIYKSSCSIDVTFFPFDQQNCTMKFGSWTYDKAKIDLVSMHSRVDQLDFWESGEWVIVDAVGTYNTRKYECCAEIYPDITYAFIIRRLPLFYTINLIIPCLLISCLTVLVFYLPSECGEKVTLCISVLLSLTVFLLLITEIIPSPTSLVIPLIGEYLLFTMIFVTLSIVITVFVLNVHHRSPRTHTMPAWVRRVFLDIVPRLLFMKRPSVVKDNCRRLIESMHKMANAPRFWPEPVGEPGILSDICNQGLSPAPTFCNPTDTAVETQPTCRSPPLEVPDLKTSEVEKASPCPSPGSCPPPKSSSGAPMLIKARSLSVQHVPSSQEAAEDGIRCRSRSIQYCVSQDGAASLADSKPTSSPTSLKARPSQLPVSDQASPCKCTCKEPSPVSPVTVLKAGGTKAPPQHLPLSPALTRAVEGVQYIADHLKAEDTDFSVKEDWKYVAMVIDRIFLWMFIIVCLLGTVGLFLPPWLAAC
Sequence of rat α4β2 nAChR subtype (P12390 25-500): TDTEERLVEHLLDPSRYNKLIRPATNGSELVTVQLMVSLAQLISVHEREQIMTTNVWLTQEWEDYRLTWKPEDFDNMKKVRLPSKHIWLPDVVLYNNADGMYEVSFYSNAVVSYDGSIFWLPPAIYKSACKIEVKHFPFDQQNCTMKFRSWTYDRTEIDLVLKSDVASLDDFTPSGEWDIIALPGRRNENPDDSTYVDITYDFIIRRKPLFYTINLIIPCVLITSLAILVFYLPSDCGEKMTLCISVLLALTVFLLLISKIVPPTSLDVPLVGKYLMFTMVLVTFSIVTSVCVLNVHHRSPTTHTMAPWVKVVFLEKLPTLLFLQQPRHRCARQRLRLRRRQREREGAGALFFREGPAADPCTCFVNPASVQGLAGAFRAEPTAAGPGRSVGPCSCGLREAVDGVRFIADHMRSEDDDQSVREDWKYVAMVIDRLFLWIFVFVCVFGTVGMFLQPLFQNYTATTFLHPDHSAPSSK

SMILES	pKi (rat α4β2 nAChR subtype; [2])	pKi (human α4β2 nAChR subtype; [3])	α7 high through-put screening outcome (Ki not determined) (α7 nAChR subtype; [4])	further results
Cc1ccc(C(=O)N2CC3CNCC(C3)C2)o1	7.00	7.38	–	α7 high through-put screening outcome (Ki not determined) (α7 nAChR subtype): ND; failed HTS
O=CNc1ccc(C(=O)N2CC3CNCC3C2)o1 (centres unmarked)	7.28	7.20	ND; failed HTS	–
O=C(c1cc(F)co1)N1CC2CNCC2C1 (centres unmarked)	7.44	7.68	ND; failed HTS	–
O=C(c1occc1F)N1CC2CNCC(C2)C1	6.96	7.24	ND; failed HTS	–
O=C(c1cc(-c2ccoc2)co1)N1CC2CNCC(C2)C1	7.92	7.46	ND; failed HTS	–
Cc1cc(C(=O)N2CC3CNCC(C3)C2)no1	–	–	ND; failed HTS	pKi (rat α4β2 nAChR subtype): 7.17; pKi (human α4β2 nAChR subtype; read-out: Human α4β2 Ki): 7.02
O=C(c1ccncc1)N1CC2CNCC(C2)C1	6.96	7.74	–	pKi (α7 nAChR subtype): 5.77
O=C(c1occc1Cl)N1CC2CNCC(C2)C1	–	7.54	ND; failed HTS	pKi (rat α4β2 nAChR subtype): 7.02
C=Cc1ccoc1C(=O)N1CC2CNCC2C1 (centres unmarked)	6.85	7.29	ND; failed HTS	–
O=C(c1ccc(F)o1)N1CC2CNCC2C1 (centres unmarked)	8.08	7.80	ND; failed HTS	–
Cc1oc(C(=O)N2CC3CNCC3C2)cc1Br (centres unmarked)	–	7.66	ND; failed HTS	pKi (rat α4β2 nAChR subtype): 7.70
Cc1ncoc1C(=O)N1CC2CNCC(C2)C1	7.70	7.19	ND; failed HTS	–
O=C(c1ccc(F)o1)N1CC2CNCC(C2)C1	8.19	–	ND; failed HTS	pKi (human α4β2 nAChR subtype; read-out: Human α4β2 Ki): 8.34
O=C(c1ccc(Cl)o1)N1CC2CNCC2C1 (centres unmarked) [N-(5-chlorofuran-2-ylcarbonyl)-3,7-diazabicyclo[3.3.0]octane]	7.48	7.55	–	pKi (α7 nAChR subtype): 4.04; activity in object recognition (OR) ([1]; 0.1 mg/kg (FIG. 1)): active
O=C(c1cc(-c2ccoc2)co1)N1CC2CNCC2C1 (centres unmarked)	6.96	7.02	ND; failed HTS	–
Cc1nocc1C(=O)N1CC2CNCC(C2)C1	8.02	7.68	ND; failed HTS	–
Cc1oncc1C(=O)N1CC2CNCC(C2)C1	7.19	–	ND; failed HTS	pKi (human α4β2 nAChR subtype; read-out: Human α4β2 Ki): 7.51
O=C(c1ccc(Cl)o1)N1CC2CNCC(C2)C1 [N-(5-chlorofuran-2-ylcarbonyl)-3,7-diazabicyclo[3.3.1]nonane]	7.82	8.14	–	pKi (α7 nAChR subtype): 3.92; activity in object recognition (OR) ([1]; 0.3 mg/kg (FIG. 2)): active
O=C(c1cc(Br)co1)N1CC2CNCC2C1 (centres unmarked)	7.54	7.74	ND; failed HTS	–
Cc1cc(C(F)(F)F)c(C(=O)N2CC3CNCC3C2)o1 (centres unmarked)	6.00	7.35	ND; failed HTS	–
N#Cc1ccc(C(=O)N2CC3CNCC3C2)o1 (centres unmarked)	7.30	–	ND; failed HTS	pKi (human α4β2 nAChR subtype; read-out: Human α4β2 Ki): 7.40
O=C(c1cc(Br)no1)N1CC2CNCC(C2)C1	8.23	–	ND; failed HTS	pKi (human α4β2 nAChR subtype; read-out: Human α4β2 Ki): 7.74
O=C(c1cc(-c2cc(F)cc(F)c2)co1)N1CC2CNCC2C1 (centres unmarked)	7.27	7.62	ND; failed HTS	–

SMILES	pKi (rat α4β2 nAChR subtype; [2])	pKi (human α4β2 nAChR subtype; [3])	α7 high through-put screening outcome (Ki not determined) (α7 nAChR subtype; [4])	further results
COc1cc(C(=O)N2CC3CNCC(C3)C2)on1	–	6.74	ND; failed HTS	pKi (rat α4β2 nAChR subtype): 7.48
O=C(c1ccc([N+](=O)[O-])o1)N1CC2CNCC2C1 (centres unmarked)	7.46	7.51	–	pKi (α7 nAChR subtype): 5.54
N#Cc1ccc(C(=O)N2CC3CNCC(C3)C2)o1	–	–	ND; failed HTS	pKi (rat α4β2 nAChR subtype): 7.46; pKi (human α4β2 nAChR subtype; read-out: Human α4β2 Ki): 8.06
O=C(c1ccncc1)N1CC2CNCC2C1 (centres unmarked)	7.59	6.80	ND; failed HTS	–
O=C(c1ccno1)N1CC2CNCC2C1 (centres unmarked)	7.37	7.16	–	α7 high through-put screening outcome (Ki not determined) (α7 nAChR subtype): ND; failed HTS
COc1cc(C(=O)N2CC3CNCC3C2)on1 (centres unmarked)	7.72	7.72	–	pKi (α7 nAChR subtype): 5.46
COc1ccoc1C(=O)N1CC2CNCC2C1 (centres unmarked)	6.45	7.00	ND; failed HTS	–
C#Cc1ccc(C(=O)N2CC3CNCC(C3)C2)o1	6.66	7.33	ND; failed HTS	–
Cc1ncoc1C(=O)N1CC2CNCC2C1 (centres unmarked)	7.82	8.04	–	pKi (α7 nAChR subtype): 3.68
O=C(c1cc(-c2cc(F)cc(F)c2)co1)N1CC2CNCC(C2)C1	8.20	7.64	ND; failed HTS	–
Cc1nocc1C(=O)N1CC2CNCC2C1 (centres unmarked)	7.62	7.85	–	pKi (α7 nAChR subtype): 4.25
Cc1cc(C(=O)N2CC3CNCC(C3)C2)on1	–	7.33	ND; failed HTS	pKi (rat α4β2 nAChR subtype): 7.54
O=C(c1occc1Br)N1CC2CNCC2C1 (centres unmarked)	–	8.82	–	pKi (rat α4β2 nAChR subtype): 8.82; pKi (α7 nAChR subtype): 4.92
O=C(c1ccco1)N1CC2CNCC2C1 (centres unmarked) [N-(furan-2-ylcarbonyl)-3,7-diazabicyclo[3.3.0]octane]	7.70	7.48	–	pKi (α7 nAChR subtype): 4.89
O=C(c1ccon1)N1CC2CNCC2C1 (centres unmarked)	7.05	7.05	ND; failed HTS	–
O=C(c1occc1Br)N1CC2CNCC(C2)C1	7.10	–	ND; failed HTS	pKi (human α4β2 nAChR subtype; read-out: Human α4β2 Ki): 7.77
O=C(c1cc(Cl)co1)N1CC2CNCC(C2)C1	–	8.28	ND; failed HTS	pKi (rat α4β2 nAChR subtype): 7.89
O=C(c1cc(F)co1)N1CC2CNCC(C2)C1	7.55	7.85	ND; failed HTS	–
COc1ccoc1C(=O)N1CC2CNCC(C2)C1	6.25	–	ND; failed HTS	pKi (human α4β2 nAChR subtype; read-out: Human α4β2 Ki): 7.55
O=C(c1occc1F)N1CC2CNCC2C1 (centres unmarked)	7.46	7.57	–	α7 high through-put screening outcome (Ki not determined) (α7 nAChR subtype): ND; failed HTS
N#Cc1coc(C(=O)N2CC3CNCC(C3)C2)c1	7.57	–	ND; failed HTS	pKi (human α4β2 nAChR subtype): 7.64
N#Cc1ccoc1C(=O)N1CC2CNCC2C1 (centres unmarked)	–	–	–	pKi (rat α4β2 nAChR subtype): 7.60; pKi (human α4β2 nAChR subtype; read-out: Human α4β2 Ki): 7.85; α7 high through-put screening outcome (Ki not determined) (α7 nAChR subtype): ND; failed HTS
O=C(c1ccno1)N1CC2CNCC(C2)C1	7.28	7.52	ND; failed HTS	–
